The assay has as its target α1 -Adrenergic receptor. The assay is described as follows: α1-Adrenergic receptor binding assay ([^3 H] prazosin competition, rat brain cortex membranes). On the procedure: Rat brain cortex membranes were prepared for [^3 H] prazosin or [^3 H] clonidine binding by homogenizing tissues in 0.32 M sucrose buffered with 50 mM Tris buffer (pH 7.4) in a tissue/buffer ratio of 1:10. After the removal of nuclei by centrifugation at 1000×g for 10 min, P2 membranes were pelleted by centrifuging the supernatant at 22,000×g for 20 min. After two periods of centrifugation at 22,000×g and resuspension in fresh buffer, the membrane suspension (about 2 mg/ml protein) was ready for use.
α1 -Adrenergic receptor binding assays (in triplicate) were carried out with 0.2 nM [^3 H] prazosin in a final volume of 1.0 ml of Tris buffer at pH 7.4 for 30 min at room temperature, using […] phentolamine to determine non-specific binding. […] The concentrations of synthetic compounds for competition binding were in the range of 0.1-100 μM. After binding had reached equilibrium, incubations were terminated by collecting the membranes on Whatman GF/B filters; the filters were washed twice with 5 ml of 50 mM Tris buffer (pH 7.4) at 4° C.
[^3 H]prazosin (76.6 Ci/mmol) and [^3 H]clonidine (47.0 Ci/mmol) were purchased from NEN. All other chemicals used were reagent grade and were purchased from Sigma (St. Louis, Mo.).

The mark [1] stands for this setting: preliminary results, read-out: affinity to α1 -adrenoceptor (Ki).
[2] abbreviates: rat brain cortex membranes, 0.2 nM [^3 H] prazosin, pH 7.4, 30 min, room temperature, read-out: α1 Binding (Ki).

Where two headings read alike, the source gives them in different places.

Broadly, the Ki is the dissociation constant of the complex between target and ligand, obtained from inhibition or displacement. Regarding `COc1ccccc1N1CCN(CC2CN=C3c4ccccc4N=C(SC)N32)CC1` (racemic) [(RS)-I, reference compound], under setting [1], the inhibition constant (Ki) stood at 3.55 nM. As to `COc1ccccc1N1CCN(C[C@H]2CN=C3c4ccccc4N=C(SC)N32)CC1` [Example 16], the inhibition constant Ki under setting [1] stood at 1.88 nM and the Ki under setting [2] is 1.88 nM. In the case of `COc1ccccc1N1CCN(C[C@@H]2CN=C3c4ccccc4NC(=O)N32)CC1` [Example 19], the Ki under setting [2] was 26 nM.

On to `COc1ccccc1N1CCN(C[C@H]2CN=C3c4ccccc4NC(=O)N32)CC1` [Example 18], for which the Ki was found to be 0.1 nM under setting [1] and 0.1 nM under setting [2]. Take `COc1ccccc1N1CCN(C[C@@H]2CN=C3c4ccccc4N=C(SC)N32)CC1` [Example 17]: the Ki under setting [1] was found to be 554 nM and the Ki under setting [2] amounted to 554 nM.

(Values after patent publication US5932584A, “Optically active 2,3-dihydroimidazo(1,2-C) quinazoline derivatives, the preparation and antihypertensive use thereof” (National Science Council, priority 1997, dated 1999).)
